Experimental data reported in article PMC7022392, “Chemoenzymatic Synthesis of Enantiomeric, Bicyclic δ-Halo-γ-lactones with a Cyclohexane Ring, Their Biological Activity and Interaction with Biological Membranes” (Biomolecules, 2020).
≈ marks a conversion by molar mass, not a printed value. Where two headings read alike, the source gives them in different places.

Columns and labels:
[1] = tested on: Proteus mirabilis ATCC 35659; assay: Disc diffusion antimicrobial test; type: cell-based; settings: includes 6 mm disc, 24 h at 37 °C, racemic compounds
[2] = tested on: Escherichia coli ATCC 25922; assay: Disc diffusion antimicrobial test; type: cell-based; settings: includes 6 mm disc, 24 h at 37 °C, racemic compounds
Procedure: (§1) The antimicrobial activity of racemic halolactones were tested towards three bacterial strains classified as Gram-negative (Escherichia coli ATCC 25922, Pseudomonas aeruginosa ATCC 27853, Proteus mirabilis ATCC […]) and Gram-positive (Bacillus cereus ATCC 10876) and two fungal strains (Candida albicans ATCC 10231 and Aspergillus brasiliensis ATCC 16404). The microorganisms were supplied by Pasteur Institute of Algiers (Algeria).
(§2) The tests were carried out using the disc diffusion method. Briefly, overnight microbial cultures were adjusted to 0.5 MacFarland turbidity standards and spread in Petri dishes containing Mueller–Hinton and Sabouraud media for bacteria and fungi, respectively. The paper discs (6 mm diameter) was sterilized and impregnated with lactone dissolved in DMSO. Then, the discs were placed on the inoculated agar. The negative controls were discs immersed in pure DMSO. The plates were incubated for 24 h at 37 °C (bacteria) and for 48 h at 25 °C (yeast) and 5–7 days for fungi. Then, the inhibition zone diameters were determined in millimeters (including disc diameter of 6 mm). The test was carried out in triplicates.

[3] = tested on: Bacillus cereus ATCC 10876; assay: Disc diffusion antimicrobial test; type: cell-based; settings: includes 6 mm disc, 24 h at 37 °C, racemic compounds
Procedure: as §1, §2

[4] = tested on: GL-1 (canine B-cell leukemia); assay: Antiproliferative activity (formazan viability); type: cell-based; settings: GL-1 cell line, mean ± SD
Procedure: (§3) The GL-1 (canine B-cell leukemia) was obtained from Yasuhito Fujino and Hajime Tsujimoto from the Department of Veterinary Internal Medicine University of Tokyo [27], the CLB70 (canine B-cell chronic leukemia) was described earlier by Pawlak et al.. The GL-1 cells were maintained in RPMI 1640 medium with 10% fetal bovine serum (FBS), 100 µg/mL streptomycin, 100 U/mL penicillin and 2 mM L-glutamine (Sigma-Aldrich, Stainheim, Germany). The CLB70 cell line was maintained in Advanced RPMI (Gibco) medium with 100 µg/mL streptomycin, 100 U/mL penicillin and 20% heat-inactivated FBS. Cells were cultured at 37 °C in the incubator with 95% humidified atmosphere and 5% CO2. The antiproliferative activity was tested according to the procedure described previously. The tested lactones were prepared within a concentration range of 6.25–50 µg/mL in the culture medium (DMSO concentration was less than 1% in each dilution). The activity curves used to calculate IC50 are presented in the (Supplementary information Figures S7–S18). The optical density of formed formazan in untreated control cells was assigned as 100%. Viability of test samples was calculated as: % Viability = (average OD for test group/average OD for control group) × 100. The results were determined from more than 3 independent experiments (four wells each) and presented as mean IC50 value ± SD.

[5] = tested on: CLB70 (canine B-cell chronic leukemia); assay: Antiproliferative activity (formazan viability); type: cell-based; settings: mean ± SD
Procedure: as §3

[6] = Canis lupus familiaris, B-cell, read-out: IC50
[7] = Canis lupus familiaris, CLB70, CLB70 cell line, read-out: IC50

For `CC(I)C12CCCCC1CC(=O)O2` (racemic) [rac-6, 1-(1′-Iodoethyl)-9-Oxabicyclo[4.3.0]nonan-8-one], which “diameter of inhibition zone” value [1] is on record?
The value was 11 ± 0.00 mm.

And the inhibition zone [2]?
The inhibition zone was 7 ± 0.00 mm.

What about the inhibition zone [3] of the same molecule?
Its inhibition zone is 12 ± 0.00 mm.

Which “diameter of inhibition zone” value [1] does the source give for `CC(Br)C12CCCCC1CC(=O)O2` (racemic) [rac-7, 1-(1′-Bromoethyl)-9-Oxabicyclo[4.3.0]nonan-8-one] here?
The value was 12 ± 0.35 mm.

What about the inhibition zone [2] of the same molecule?
The inhibition zone was 9 ± 0.00 mm.

And the inhibition zone [3]?
Its inhibition zone is 8 ± 0.00 mm.

Which melting point does the source give for `C[C@@H](I)[C@]12CCCC[C@H]1CC(=O)O2` [6a, (−)-(1S,6S,1′R)-1-(1′-Iodoethyl)-9-oxabicyclo[4.3.0]nonan-8-one] here?
Its melting point is 104 to 107 °C.

What about the IC50 [4, 6] of the same molecule?
The IC50 was 13.8 ± 1.08 µg/mL (≈ 46.8 µM).

What about the IC50 [5, 7] of the same molecule?
Its IC50 is 19.6 ± 0.51 µg/mL (≈ 66.6 µM).

What does the source list for `C[C@H](I)[C@@]12CCCC[C@@H]1CC(=O)O2` [6b, (+)-(1R,6R,1′S)-1-(1′-Iodoethyl)-9-oxabicyclo[4.3.0]nonan-8-one]?
IC50 [4, 6]: 14.5 ± 2.38 µg/mL (≈ 49.4 µM); IC50 [5, 7]: 19.93 ± 0.07 µg/mL (≈ 67.8 µM)

With `C[C@@H](Br)[C@]12CCCC[C@H]1CC(=O)O2` [7a, (−)-(1S,6S,1′R)-1-(1′-Bromoethyl)-9-oxabicyclo[4.3.0]nonan-8-one] as the molecule, how does the melting point read?
Its melting point is 44 to 48 °C.

And the IC50 [4, 6]?
The IC50 was 15.6 ± 0.79 µg/mL (≈ 62.9 µM).

What about the IC50 [5, 7] of the same molecule?
The IC50 was 19.4 ± 0.35 µg/mL (≈ 78.5 µM).

Which results are given for `C[C@H](Br)[C@@]12CCCC[C@@H]1CC(=O)O2` [7b, (+)-(1R,6R,1′S)-1-(1′-Bromoethyl)-9-oxabicyclo[4.3.0]nonan-8-one]?
IC50 [4, 6]: 14.9 ± 1.93 µg/mL (≈ 60.5 µM); IC50 [5, 7]: 28.6 ± 4.89 µg/mL (≈ 116 µM)

Which melting point does the source give for `C[C@@H](Cl)[C@]12CCCC[C@H]1CC(=O)O2` [8a, (−)-(1S,6S,1′R)-1-(1′-Chloroethyl)-9-oxabicyclo[4.3.0]nonan-8-one] here?
Its melting point is 37 to 40 °C.

What about the IC50 [4, 6] of the same molecule?
Its IC50 is 17.2 ± 3.62 µg/mL (≈ 84.7 µM).

What about the IC50 [5, 7] of the same molecule?
Its IC50 is 23.9 ± 5.14 µg/mL (≈ 118 µM).

Which IC50 [4, 6] does the source give for `C[C@H](Cl)[C@@]12CCCC[C@@H]1CC(=O)O2` [8b, (+)-(1R,6R,1′S)-1-(1′-Chloroethyl)-9-oxabicyclo[4.3.0]nonan-8-one] here?
Its IC50 is 18.4 ± 1.46 µg/mL (≈ 90.9 µM).

And the IC50 [4]?
The IC50 was 11.40 ± 0.40 µg/mL (≈ 56.2 µM).

And the IC50 ([5]; CLB70 cell line)?
The IC50 was 18.43 ± 1.46 µg/mL (≈ 90.9 µM).

And the IC50 [5, 7]?
Its IC50 is 11.4 ± 0.4 µg/mL (≈ 56.2 µM).

With `COc1cc([C@@H]2c3cc4c(cc3[C@@H](O[C@@H]3O[C@@H]5CO[C@@H](C)O[C@H]5[C@H](O)[C@H]3O)[C@H]3COC(=O)[C@H]23)OCO4)cc(OC)c1O` [Etoposide, reference compound] as the molecule, how does the IC50 [4, 6] read?
Its IC50 is 4.4 ± 1.14 µg/mL (≈ 7.48 µM).

And the IC50 [5, 7]?
Its IC50 is 14.3 ± 2.83 µg/mL (≈ 24.3 µM).

With `CC(Cl)C12CCCCC1CC(=O)O2` (centres unmarked) [compound 8, 1-(1′-Chloroethyl)-9-Oxabicyclo[4.3.0]nonan-8-one] as the molecule, how does the “diameter of inhibition zone” value [1] read?
The value was 12 ± 0.00 mm.
